The target of experiment [1] is T1, EGFR L858R/T790M/C797S (BaF3-LTC cells) (Homo sapiens, UniProt P00533, C797S/L858R/T790M).
T1 construct: expressed in transfected cells; host or cells: BaF3
Briefly: EGFR degradation HTRF assay, BaF3-LTC cells. It is filed as cell-based. The method in brief: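 Cells treated 16 h at 37 °C, 5% CO2 in medium with 0.2% DMSO; top final concentration 10 uM, 5-fold dilution, 8 doses. Lysates read by HTRF (665/620 nm); degradation % versus DMSO high control, DC50 from four-parameter fit, Dmax as maximal degradation.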
Background: In TR-FRET formats the signal depends on donor and acceptor labels being close together.

For experiment [2], the system named is EGFR Del19/T790M/C797S (H1975-clone #28). Nature of the experiment: EGFR degradation HTRF assay, H1975-clone #28 DTC cells. Format: cell-based. The method in brief:
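The test uses H1975 clonal lines carrying lentiviral mutant EGFR with endogenous copies removed, treated 16h at 37° C., 5% CO2. EGFR left in the lysate is quantified by HTRF, and DC50 is derived from an 8-dose curve starting at 10 uM final.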

The mark [3] stands for this setting: BaF3-LTC cells; EGFR degradation, IC50 (DC50) from curve fit; read-out: DC50(nM) BaF3-LTC.
The mark [4] stands for this setting: BaF3-LTC cells; maximum percentage of inhibition (degradation); read-out: Dmax (%) BaF3-LTC.
Where [5] appears, read: H1975 # 28 DTC cells; EGFR degradation, IC50 (DC50) from curve fit; read-out: DC50(nM) H1975 # 28 DTC.
[6] abbreviates: H1975 # 28 DTC cells; maximum percentage of inhibition (degradation).

Like-named read-outs stand apart in the source and are kept apart here.

T1 sequence (P00533 25-1210 T790M/C797S/L858R): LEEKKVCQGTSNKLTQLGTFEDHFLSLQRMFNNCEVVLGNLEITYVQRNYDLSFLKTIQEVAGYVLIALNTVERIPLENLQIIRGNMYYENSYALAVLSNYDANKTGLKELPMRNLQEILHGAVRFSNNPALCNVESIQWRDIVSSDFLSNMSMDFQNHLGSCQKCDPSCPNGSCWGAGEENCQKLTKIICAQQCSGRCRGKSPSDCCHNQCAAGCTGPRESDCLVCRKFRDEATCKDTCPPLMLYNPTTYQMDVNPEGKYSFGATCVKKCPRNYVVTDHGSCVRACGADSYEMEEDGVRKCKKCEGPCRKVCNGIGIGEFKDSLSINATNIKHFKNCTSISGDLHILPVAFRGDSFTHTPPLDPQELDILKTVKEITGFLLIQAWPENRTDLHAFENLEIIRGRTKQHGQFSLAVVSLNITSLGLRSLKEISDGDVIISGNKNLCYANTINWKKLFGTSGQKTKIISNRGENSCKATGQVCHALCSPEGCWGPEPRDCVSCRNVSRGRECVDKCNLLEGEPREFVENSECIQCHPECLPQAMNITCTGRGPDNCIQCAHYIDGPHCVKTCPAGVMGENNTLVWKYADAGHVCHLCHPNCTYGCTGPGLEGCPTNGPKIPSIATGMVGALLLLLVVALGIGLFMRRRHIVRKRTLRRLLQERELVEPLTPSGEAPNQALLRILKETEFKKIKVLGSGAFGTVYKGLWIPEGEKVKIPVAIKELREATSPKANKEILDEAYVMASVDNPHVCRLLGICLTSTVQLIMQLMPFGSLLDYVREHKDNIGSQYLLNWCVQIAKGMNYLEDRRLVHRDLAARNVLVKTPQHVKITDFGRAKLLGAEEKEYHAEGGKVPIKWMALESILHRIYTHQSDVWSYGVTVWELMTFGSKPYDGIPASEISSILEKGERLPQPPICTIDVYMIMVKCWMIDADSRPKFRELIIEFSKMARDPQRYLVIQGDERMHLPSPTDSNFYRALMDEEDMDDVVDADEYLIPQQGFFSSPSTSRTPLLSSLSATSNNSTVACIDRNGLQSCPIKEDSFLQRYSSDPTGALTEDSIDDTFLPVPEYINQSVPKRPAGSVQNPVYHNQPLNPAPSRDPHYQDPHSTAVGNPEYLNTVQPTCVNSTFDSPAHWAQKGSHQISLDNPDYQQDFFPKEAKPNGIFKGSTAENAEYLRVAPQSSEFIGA

What is called DC50 is the midpoint of the concentration-degradation curve. Broadly, the Dmax is the largest share of the target that was removed. Regarding `CCc1cc(Nc2ncc(Br)c(Nc3ccc4nc(C)sc4c3P(C)(C)=O)n2)c(OC)cc1N1CCC(N2CCN(CCc3cc(F)c([C@H]4CCC(=O)NC4=O)c(F)c3)CC2)CC1` [Example 661, (R)-3-(4-(2-(4-(1-(4-((5-bromo-4-((7-(dimethylphosphoryl)-2-methylbenzo[d]thiazol-6-yl)amino)pyrimidin-2-yl)amino)-2-ethyl-5-methoxyphenyl)piperidin-4-yl)piperazin-1-yl)ethyl)-2,6-difluorophenyl)piperidine-2,6-dione], the DC50 in experiment [1] (setting [3]) was found to be 8.68 nM; in experiment [2] (setting [5]), 0.609 nM. In addition, the Dmax in experiment [1] (setting [4]) came to 85.8%. In addition, in experiment [2] (setting [6]), the “Dmax (%) H1975 # 28 DTC” value came to 87.94%.

With `CCc1cc(Nc2ncc(Br)c(Nc3ccc4nc(C)ccc4c3P(C)(C)=O)n2)c(OC)cc1N1CCC(N2CCN(C(=O)[C@@H]3CN(c4cc(F)c([C@H]5CCC(=O)NC5=O)c(F)c4)CC3(C)C)CC2)CC1` [Example 662, (R)-3-(4-((S)-4-(4-(1-(4-((5-bromo-4-((5-(dimethylphosphoryl)-2-methylquinolin-6-yl)amino)pyrimidin-2-yl)amino)-2-ethyl-5-methoxyphenyl)piperidin-4-yl)piperazine-1-carbonyl)-3,3-dimethylpyrrolidin-1-yl)-2,6-difluorophenyl)piperidine-2,6-dione], the DC50 in experiment [1] (setting [3]) was 5.4 nM; in experiment [2] (setting [5]), 2.23 nM. In addition, in experiment [1] (setting [4]), the Dmax turned out to be 97%. Also, the “Dmax (%) H1975 # 28 DTC” value in experiment [2] (setting [6]) was 89.14%.

`CCc1ccc2c(P(C)(C)=O)c(Nc3nc(Nc4cc(CC)c(N5CCC(N6CCN(C(=O)C78CCC(Nc9cc(F)c([C@H]%10CCC(=O)NC%10=O)c(F)c9)(CC7)C8)CC6)CC5)cc4OC)ncc3Br)ccc2n1` [Example 663, (R)-3-(4-((4-(4-(1-(4-((5-bromo-4-((5-(dimethylphosphoryl)-2-ethylquinolin-6-yl)amino)pyrimidin-2-yl)amino)-2-ethyl-5-methoxyphenyl)piperidin-4-yl)piperazine-1-carbonyl)bicyclo[2.2.1]heptan-1-yl)amino)-2,6-difluorophenyl)piperidine-2,6-dione]: the results for the half-maximal degradation concentration (DC50) in experiment [1] (setting [3]) and in experiment [2] (setting [5]) were 3.98 nM and 1.81 nM, respectively. Also, the Dmax in experiment [1] (setting [4]) is 95.8%. Moreover, the “Dmax (%) H1975 # 28 DTC” value in experiment [2] (setting [6]) came out at 74.11%.

On to `CCc1ccc2c(P(C)(C)=O)c(Nc3nc(Nc4cc(CC)c(N5CCC(N6CCN(C(=O)CN7CCN(c8cc(F)c([C@H]9CCC(=O)NC9=O)c(F)c8)CC7)CC6)CC5)cc4OC)ncc3Br)ccc2n1` [Example 665, (R)-3-(4-(4-(2-(4-(1-(4-((5-bromo-4-((5-(dimethylphosphoryl)-2-ethylquinolin-6-yl)amino)pyrimidin-2-yl)amino)-2-ethyl-5-methoxyphenyl)piperidin-4-yl)piperazin-1-yl)-2-oxoethyl)piperazin-1-yl)-2,6-difluorophenyl)piperidine-2,6-dione], for which the DC50 was found to be 1.49 nM in experiment [1] (setting [3]) and 0.543 nM in experiment [2] (setting [5]). In addition, in experiment [1] (setting [4]), the Dmax came to 97.9%. The “Dmax (%) H1975 # 28 DTC” value in experiment [2] (setting [6]) turned out to be 85.47%.

Turning to `CCc1cc(Nc2ncc(Br)c(Nc3ccc4nc(C)sc4c3P(C)(C)=O)n2)c(OC)cc1N1CCC(N2CCN(CCc3cc(F)c(C4CCC(=O)NC4=O)c(F)c3)CC2)CC1` (stereo not drawn) [Example 666, 3-(4-(2-(4-(1-(4-((5-bromo-4-((7-(dimethylphosphoryl)-2-methylbenzo[d]thiazol-6-yl)amino)pyrimidin-2-yl)amino)-2-ethyl-5-methoxyphenyl)piperidin-4-yl)piperazin-1-yl)ethyl)-2,6-difluorophenyl)piperidine-2,6-dione], the DC50 was determined as 11.1 nM in experiment [1] (setting [3]) and 2.4 nM in experiment [2] (setting [5]). For the same molecule, the Dmax in experiment [1] (setting [4]) was determined as 93.2%. Further, the “Dmax (%) H1975 # 28 DTC” value in experiment [2] (setting [6]) was determined as 86.11%.

`COc1cc(N2CCC3(CCN(C(=O)[C@@H]4CCN(c5cc(F)c([C@H]6CCC(=O)NC6=O)c(F)c5)C4)CC3)CC2)c(C)cc1Nc1ncc(Br)c(Nc2ccc3nccnc3c2P(C)(C)=O)n1` [Example 667, (R)-3-(4-((R)-3-(9-(4-((5-bromo-4-((5-(dimethylphosphoryl)quinoxalin-6-yl)amino)pyrimidin-2-yl)amino)-5-methoxy-2-methylphenyl)-3,9-diazaspiro[5.5]undecane-3-carbonyl)pyrrolidin-1-yl)-2,6-difluorophenyl)piperidine-2,6-dione]: the figures for the DC50 in experiment [1] (setting [3]) and in experiment [2] (setting [5]) were 13.3 nM and 3.69 nM, respectively. The Dmax in experiment [1] (setting [4]) came to 84%. In addition, in experiment [2] (setting [6]), the “Dmax (%) H1975 # 28 DTC” value is 77.43%.

`CCc1cc(Nc2ncc(Br)c(Nc3ccc4ncncc4c3P(C)(C)=O)n2)c(OC)cc1N1CCC(N2CCN(C(=O)[C@@H]3CCN(c4cc(F)c([C@H]5CCC(=O)NC5=O)c(F)c4)C3)CC2)CC1` [Example 668, (R)-3-(4-((R)-3-(4-(1-(4-((5-bromo-4-((5-(dimethylphosphoryl)quinazolin-6-yl)amino)pyrimidin-2-yl)amino)-2-ethyl-5-methoxyphenyl)piperidin-4-yl)piperazine-1-carbonyl)pyrrolidin-1-yl)-2,6-difluorophenyl)piperidine-2,6-dione]: the DC50 in experiment [1] (setting [3]) came to 2.32 nM; in experiment [2] (setting [5]), 0.579 nM. Besides, in experiment [1] (setting [4]), the Dmax came to 91.5%. Moreover, the “Dmax (%) H1975 # 28 DTC” value in experiment [2] (setting [6]) is reported as 86.5%.

Turning to `CCc1ccc2c(P(C)(C)=O)c(Nc3nc(Nc4cc(CC)c(N5CCC(N6CCN(C(=O)Cc7ccc8c(c7)oc(=O)n8C7CCC(=O)NC7=O)CC6)CC5)cc4OC)ncc3Br)ccc2n1` (stereo not drawn) [Example 669, 3-(6-(2-(4-(1-(4-((5-bromo-4-((5-(dimethylphosphoryl)-2-ethylquinolin-6-yl)amino)pyrimidin-2-yl)amino)-2-ethyl-5-methoxyphenyl)piperidin-4-yl)piperazin-1-yl)-2-oxoethyl)-2-oxobenzo[d]oxazol-3(2H)-yl)piperidine-2,6-dione], the DC50 was determined as 4.06 nM in experiment [1] (read-out: DC50(nM) BaF3-LTC; BaF3-LTC cells; EGFR degradation, IC50 (DC50) from curve fit) and 0.59 nM in experiment [2] (read-out: DC50(nM) H1975 # 28 DTC; H1975 # 28 DTC cells; EGFR degradation, IC50 (DC50) from curve fit). Moreover, the Dmax in experiment [1] (read-out: Dmax (%) BaF3-LTC, BaF3-LTC cells; maximum percentage of inhibition (degradation)) came to 91.1%. Further, the “Dmax (%) H1975 # 28 DTC” value in experiment [2] (setting [6]) was 73.26%.

Take `CCc1cc(Nc2ncc(Br)c(Nc3ccc4nc(C)ccc4c3P(C)(C)=O)n2)c(OC)cc1N1CCC(N2CCN(C(=O)Cc3cc(F)c([C@H]4CCC(=O)NC4=O)c(F)c3)CC2)CC1` [Example 670, (R)-3-(4-(2-(4-(1-(4-((5-bromo-4-((5-(dimethylphosphoryl)-2-methylquinolin-6-yl)amino)pyrimidin-2-yl)amino)-2-ethyl-5-methoxyphenyl)piperidin-4-yl)piperazin-1-yl)-2-oxoethyl)-2,6-difluorophenyl)piperidine-2,6-dione]: the DC50 in experiment [1] (setting [3]) came to 3.37 nM; in experiment [2] (setting [5]), 0.634 nM. Also, the Dmax in experiment [1] (setting [4]) amounted to 88.3%. The “Dmax (%) H1975 # 28 DTC” value in experiment [2] (setting [6]) came out at 83.95%.

In the case of `CCc1ccc2c(P(C)(C)=O)c(Nc3nc(Nc4cc(CC)c(N5CCC(N6CCN(C(=O)Cc7cccc8c7n(C)c(=O)n8C7CCC(=O)NC7=O)CC6)CC5)cc4OC)ncc3Br)cc(F)c2n1` (stereo not drawn) [Example 671, 3-(4-(2-(4-(1-(4-((5-bromo-4-((5-(dimethylphosphoryl)-2-ethyl-8-fluoroquinolin-6-yl)amino)pyrimidin-2-yl)amino)-2-ethyl-5-methoxyphenyl)piperidin-4-yl)piperazin-1-yl)-2-oxoethyl)-3-methyl-2-oxo-2,3-dihydro-1H-benzo[d]imidazol-1-yl)piperidine-2,6-dione], the DC50 was 4.85 nM in experiment [1] (setting [3]) and 0.219 nM in experiment [2] (setting [5]). The Dmax in experiment [1] (setting [4]) turned out to be 92.7%. Further, the “Dmax (%) H1975 # 28 DTC” value in experiment [2] (setting [6]) is reported as 75.9%.

With `CCOc1cc(N2CCC(N3CCN(CCc4cc(F)c([C@H]5CCC(=O)NC5=O)c(F)c4)CC3)CC2)c(CC)cc1Nc1ncc(Br)c(Nc2cc(F)c3ncc(C)cc3c2P(C)(C)=O)n1` [Example 672, (R)-3-(4-(2-(4-(1-(4-((5-bromo-4-((5-(dimethylphosphoryl)-8-fluoro-3-methylquinolin-6-yl)amino)pyrimidin-2-yl)amino)-5-ethoxy-2-ethylphenyl)piperidin-4-yl)piperazin-1-yl)ethyl)-2,6-difluorophenyl)piperidine-2,6-dione], the DC50 worked out at 6.6 nM in experiment [1] (setting [3]) and 0.723 nM in experiment [2] (setting [5]). Moreover, the Dmax in experiment [1] (setting [4]) is 86.9%. Also, the “Dmax (%) H1975 # 28 DTC” value in experiment [2] (setting [6]) was 87.05%.

`CCc1cc(Nc2ncc(Br)c(Nc3ccc4c(=O)n(CC)ncc4c3P(C)(C)=O)n2)c(OC)cc1N1CCC(N2CCN(C(=O)[C@@H]3CCN(c4cc(F)c([C@H]5CCC(=O)NC5=O)c(F)c4)C3)CC2)CC1` [Example 673, (R)-3-(4-((R)-3-(4-(1-(4-((5-bromo-4-((5-(dimethylphosphoryl)-2-ethyl-1-oxo-1,2-dihydrophthalazin-6-yl)amino)pyrimidin-2-yl)amino)-2-ethyl-5-methoxyphenyl)piperidin-4-yl)piperazine-1-carbonyl)pyrrolidin-1-yl)-2,6-difluorophenyl)piperidine-2,6-dione]: the 50% degradation concentration (DC50) in experiment [1] (setting [3]) came to 5.79 nM; in experiment [2] (setting [5]), 0.677 nM. In experiment [1] (setting [4]), the Dmax was 93.3%. In experiment [2] (setting [6]), the “Dmax (%) H1975 # 28 DTC” value is reported as 85.2%.

The values are drawn from US20230265116A1, “DEGRADATION OF (EGFR) BY CONJUGATION OF EGFR INHIBITORS WITH E3 LIGASE LIGAND AND METHODS OF USE” (BEIGENE, LTD., priority 2020, published 2023).
